According to patent US5869456A, “Use of glutathione diesters” (priority 1995, dated 1999):
Read-outs that look alike come from different tables or passages of the source.

Assays:
mice [1] = conditions: earlier evidence / earlier patents; cited from earlier work
Human Erythrocytes [2] = conditions: for Thiol Levels, Total / Thiol Levels, thiol found GSH / Thiol Levels, thiol found GSH-DE / Thiol Levels, thiol found GSH-ME: erythrocyte suspension, 80 mM thiol added (one-third vol), 37° C.
Experimental: Analysis of Erythrocyte Thiol by DTNB. Cell supernatant (40 μl) was added to 1 ml of 6 mM DTNB (in 143 mM phosphate buffer, pH 7.5, containing 6.3 mM EDTA). The change in absorbance at 412 nm after 1 min was converted to a value for total thiol using a GSH standard curve. The GSH standard were prepared in a 1:2:2 mixture of PBS: 0.435M acetic acid: 10% SSA (containing 2 mM EDTA) ("RBC Mix").
(§1) Derivatization of Cell Thiols for HPLC Analysis. Derivatization mixtures are as follows: Erythrocyte Lysates: 155 μl 50 mM DTPA (pH 7), 110 μl 3.33% SSA, total 180 μl cell supernatant plus "RBC Mix", 10 μl 0.1M mBBr (in CH3 CN), 100 μl of 2M Tris·HCl (pH 9 at room temperature). The samples were placed in the dark for 20-30 minutes at room temperature; the reaction was quenched with 90 μl of glacial acetic acid. Reduced Erythocyte Lysates. 155 μl mM DTT in 50 mM DTPA (pH 7), SSA, sample, and "RBC Mix" as above Tris was added and the samples were agitated at room temperature for 25 min. 20 μl Tris and 10 μl mBBr were added; the derivatization proceeds as above.
(§2) HPLC Analysis of Cellular Thiols. Samples were chromatographed on an Altex Ultrasphere ODS reverse phase column (5μ; 4.6 mm×25 cm), using one of three gradients: (1) Buffer A: 12.8% MeOH, 0.25% acetic acid, 87.75% H2 O, pH 3.9. (2) Buffer B: 90.0% MeOH, 0.25% acetic acid, 9.75% H2 O (no pH Adjustment). (3) Gradient 1: Initial, 100% A, linear gradient to 50% B at 25 min., linear gradient to 100% B at 35 min., wash with 100% B to 39.5 min.; step to 100% A at 40 min.; equilibration with 100% A to 48 min. Gradient 2: Initial, 100% A, linear gradient to 75% B at 25 min., remainder identical to Gradient 1. Gradient 3: Initial, 100% A, linear gradient to 65% A, 35% B at 25 minutes, remainder identical to gradient 1. Flow rates were 1 ml/min.
Whole blood was collected with EDTA or DTPA (0.5M, pH 7) as anticoagulant (0.4 ml/8-12 ml blood). Plasma and buffy coat were removed after centrifugation and the erythrocytes washed 3 times with 1-2 vol PBS/5 mM DTPA or EDTA. Packed erythrocytes were suspended in one-half vol. PBS. To each suspension was one-third vol. GSH, GSH-ME or GSH-DE (80 mM, pH 7). After incubation at 37° C. for the indicated times, aliquots were removed, washed (3-4×) with PBS/EDTA/DTPA, lysed with one volume 0.435M acetic acid, protein-precipitated with one volume 10% SSA/2 mM DTPA, and centrifuged to remove cell debris. Supernatants were derivatized for HPLC analysis as described in Materials and Methods.

Human Erythrocytes [3] = conditions: whole blood + one-half volume 120 mM thiol, 30 minutes, 37° C.
Experimental: as §1, §2
Whole blood (see Table 1) was mixed with one-half volume of 120 mM GSH, GSH-ME, or GSH-DE at pH 7. The samples were incubated for 30 minutes at 37° C. and then centrifuged. After removal of plasma and buffy coat, the erythrocytes were washed and processed as described in Table 1.

[4] = test system: Human Peripheral Blood Mononuclear Cells; conditions: 6 ml whole blood + 3 ml 60 mM thiol, 30 min, 37° C.; PBM
Experimental: (§3) T Cell and PBM Lysates: 120 μl 4 mM DTPA, total 360 μl sample/4.31% SSA (containing 0.5 mM DTPA), 100 μl Tris, 5μ mBBr; 20 min. in the dark, 15 μl glacial acetic acid.
as §2
6 mls. whole blood (see Table 1) was mixed with 3 ml of 60 mM GSH, GSH-ME or GSH-DE at pH 7. After 30 min incubation at 37° C., PBM were isolated by Ficoll-Hypaque density gradient centrifugation. Cells were washed with 14 ml PBS (2-3) and lysed with 4.31% SSA/0.5 mM DTPA (400 μl). After centrifugation, the supernatants were derivatized for HPLC analysis.

[5] = test system: Human Peripheral Blood Mononuclear Cells; conditions: for Thiol Levels, Total / Thiol Levels, thiol found GSH / Thiol Levels, thiol found GSH-DE / Thiol Levels, thiol found GSH-ME: isolated PBM, 0.3 ml 80 mM thiol to 0.9 ml cells, 37° C.
Experimental: as §3, §2
PBM were isolated from whole blood (see Tables 1 and 3) washed with PBS, and re-suspended in PBS. To 0.9 ml cell suspension (5-8×10^6 cells) was added 0.3 ml of 80 mM GSH, GSH-ME or GSH-DE at pH 7. After incubation at 37° C. for the indicated times, the cells were recovered by centrifugation, washed with 14 ml PBS (2×), and lysed by addition of 4.31% of SSA/0.5 mM DTPA and 2-3 freeze-thaw cycles. After centrifugation, supernatants were derivatized for HPLC analysis.

[6] = test system: Hamsters (liver, kidney, blood plasma); test: Thiol levels in hamsters treated with GSH esters; format: in vivo, Syrian hamster
Experimental: Plasma Samples: 190 μl 50 mM DTPA, total 70 μ1 sample plus 3.33% SSA, 17.5 μl Tris, 10 μl of mBBr; after 20 min in the dark, 7.5 μl glacial acetic acid. Reduced Plasma Samples: 170μ 50 mM DTPA, 20 μl 16 mM DTT in 50 mM DTPA, remainder as above; the samples were agitated at room temperature for 20 min. After reduction, mBBr was added and the derivatization proceeds as above.
Other Animal Tissues. 385 μl 50 mM DTPA, 140 μl sample. 20 μl mBBr, 40 μl Tris; 20 minutes in the dark, 15 μl glacial acetic acid. Standards for all sample types were prepared using identical derivatization procedures.
Recovery of Tissues from Syrian Hamsters. Animals were anesthetized by i.p. administration of xylazine and ketamine, decapitated, and exsanguinated. Blood was mixed with 50 μl EDTA (0.5M, pH 7). Plasma was recovered by centrifugation; one-half vol. 10% SSA/0.5 mM DTPA was added. Liver: one lobe was removed, rinsed with H2 O, blotted, weighed, and homogenized in 5% SSA (0.5 Mm DTPA) (5 vol/g tissue). Kidney: one kidney was removed and decapsulated and then processed as with liver.
BSO (6 mmol/kg) was given I.P. fasted animals 2 hours prior to giving GSH, GSH-ME, or GSH-DE (5 mmol/kg); values were determined 1 hour later. […] Each value represents determinations ±S.D. on 3-4 animals.

[7] = test system: GSH diester α-esterase activity, human blood plasma
[8] = test system: GSH diester α-esterase activity, hamster plasma
[9] = test system: esterase activity, rat blood plasma
[10] = test system: esterase activity, mouse blood plasma
[11] = test system: GSH diester α-esterase activity, guinea pig plasma
[12] = test system: GSH diester α-esterase activity, rabbit plasma
[13] = test system: GSH diester α-esterase activity, sheep plasma
mice [14] = conditions: given to mice, present studies
hamsters = conditions: given to hamsters, present studies

## COC(=O)CNC(=O)C(CS)NC(=O)CCC(N)C(=O)OC (centres unmarked) [GSH dimethyl ester]
Mice [1]
  toxicity: may be toxic

## CCOC(=O)CNC(=O)[C@H](CS)NC(=O)CC[C@H](N)C(=O)OCC [GSH-DE, glutathione diethyl ester]
Human Erythrocytes [2]; 7 min
  Thiol Levels, Total: 9.99 ± 2.10 mM
  Thiol Levels, thiol found GSH: 1.74 ± 0.22 mM
  Thiol Levels, thiol found GSH-DE: 4.19 ± 1.47 mM
  Thiol Levels, thiol found GSH-ME: 4.01 ± 0.41 mM
Human Erythrocytes [2]; 45 min
  Thiol Levels, Total: 14.5 ± 2.0 mM
  Thiol Levels, thiol found GSH: 1.77 ± 0.22 mM
  Thiol Levels, thiol found GSH-DE: 3.61 ± 1.29 mM
  Thiol Levels, thiol found GSH-ME: 9.15 ± 0.49 mM
Human Erythrocytes [2]; 90 min
  Thiol Levels, Total: 20.1 ± 2.8 mM
  Thiol Levels, thiol found GSH: 2.02 ± 0.30 mM
  Thiol Levels, thiol found GSH-DE: 3.51 ± 1.28 mM
  Thiol Levels, thiol found GSH-ME: 14.6 ± 1.2 mM
Human Erythrocytes [2]; summary of Table 1
  total RBC thiol levels: about 20 mM
Human Erythrocytes [3]
  Thiol Levels Found, GSH: 2.24 ± 0.45 mM
  Thiol Levels Found, GSH-DE: 8.61 ± 0.31 mM
  Thiol Levels Found, GSH-ME: 6.26 ± 0.50 mM
  Thiol Levels Found, Total: 17.1 ± 1.24 mM
[4]
  Thiol Levels Found, GSH: 4.24 nmol/10^6 cells
  Thiol Levels Found, GSH-DE: 0.501 nmol/10^6 cells
  Thiol Levels Found, GSH-ME: 10.5 nmol/10^6 cells
  Thiol Levels Found, Total: 15.2 nmol/10^6 cells
[5]; in 90 min, text summary of Table 4
  total thiols in human PBM: 33 mM
[5]; 7 min, donor A
  Thiol Levels, Total: 12.1 ± 1.3 nmol/10^6 cells
  Thiol Levels, thiol found GSH: 3.64 ± 0.32 nmol/10^6 cells
  Thiol Levels, thiol found GSH-DE: 0.65 ± 0.016 nmol/10^6 cells
  Thiol Levels, thiol found GSH-ME: 8.34 ± 0.95 nmol/10^6 cells
[5]; 45 min, donor B
  Thiol Levels, Total: 17.2 ± 1.4 nmol/10^6 cells
  Thiol Levels, thiol found GSH: 2.82 ± 0.25 nmol/10^6 cells
  Thiol Levels, thiol found GSH-DE: 0.320 ± 0.101 nmol/10^6 cells
  Thiol Levels, thiol found GSH-ME: 14.1 ± 1.0 nmol/10^6 cells
[5]; 90 min, donor A
  Thiol Levels, Total: 33.2 ± 6.3 nmol/10^6 cells
  Thiol Levels, thiol found GSH: 5.58 ± 1.05 nmol/10^6 cells
  Thiol Levels, thiol found GSH-DE: 0.750 ± 0.141 nmol/10^6 cells
  Thiol Levels, thiol found GSH-ME: 26.9 ± 5.1 nmol/10^6 cells
[6]; hamster, comparison in words (Table 6)
  raising GSH levels in liver: more effective than GSH-ME
[6]; hamsters, 5 mmol/kg after BSO, 1 hour later
  Blood plasma levels of GSH: not affected
[7]
  splitting of GSH-DE to GSH-ME in plasma (GSH diester α-esterase activity): not split to GSH-ME in plasma
[7]; listed as GSH diethyl ester
  splitting of GSH-DE to GSH-ME in plasma (GSH diester α-esterase activity): does not have detectable GSH diester α-esterase activity
[8]
  splitting of GSH-DE to GSH-ME in plasma (GSH diester α-esterase activity): not split to GSH-ME in plasma
[8]; listed as GSH diethyl ester
  splitting of GSH-DE to GSH-ME in plasma (GSH diester α-esterase activity): lacks detectable GSH diester α-esterase activity
[9]
  conversion of GSH diethyl ester to GSH mono (glycyl) ester in blood plasma: split rapidly to GSH-ME
[9]; listed as GSH diethyl ester
  conversion of GSH diethyl ester to GSH mono (glycyl) ester in blood plasma: rapidly converted to GSH mono (glycyl) ester
[10]
  conversion of GSH diethyl ester to GSH mono (glycyl) ester in blood plasma: split rapidly to GSH-ME
[10]; listed as GSH diethyl ester
  conversion of GSH diethyl ester to GSH mono (glycyl) ester in blood plasma: rapidly converted to GSH mono (glycyl) ester
[11]
  GSH diester α-esterase activity in plasma: also lack this esterase
[12]
  GSH diester α-esterase activity in plasma: also lack this esterase
[13]
  GSH diester α-esterase activity in plasma: also lack this esterase
Mice [14]
  toxicity: toxicity was not observed
hamsters
  toxicity: toxicity was not observed
